From patent publication US8575197B2, “Pyrolinone derivative and pharmaceutical composition comprising the same” (Shionogi & Co., Ltd., priority 2008, dated 2013)

Molecular target: human P2X3 receptor (Homo sapiens (Human), UniProt P56373)
Experiment: P2X3 receptor inhibition, ATP-evoked Fluo-3 calcium fluorescence (FDSS 3000)
Type: cell-based
Settings: C6BU-1 cell transfected with human P2X3 receptor gene; ATP-evoked Fluo-3 fluorescence
Method in brief: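 C6BU-1 cells stably transfected with human P2X3, loaded with 4 μM Fluo-3-AM for 1 h at 37 °C in HEPES buffer pH 7.5 with probenecid. Compound added 5 min before 40 nM ATP solution; fluorescence followed 3 min. IC50 from ratio of peak post-ATP to baseline fluorescence.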

human P2X3 receptor, sequence (P56373 whole entry): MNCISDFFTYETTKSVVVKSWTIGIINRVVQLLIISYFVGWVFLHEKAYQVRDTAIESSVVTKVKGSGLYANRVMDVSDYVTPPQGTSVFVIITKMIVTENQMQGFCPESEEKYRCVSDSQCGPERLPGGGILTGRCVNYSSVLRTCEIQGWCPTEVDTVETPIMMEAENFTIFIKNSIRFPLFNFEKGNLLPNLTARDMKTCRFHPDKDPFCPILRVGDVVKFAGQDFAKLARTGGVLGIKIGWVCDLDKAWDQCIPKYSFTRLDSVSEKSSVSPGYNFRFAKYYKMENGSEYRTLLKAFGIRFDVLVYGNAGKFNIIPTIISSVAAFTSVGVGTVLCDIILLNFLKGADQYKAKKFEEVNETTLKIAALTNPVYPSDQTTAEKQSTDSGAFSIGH

Compound	IC50 [nM]
O=C1C(O)=C(S(=O)(=O)c2ccccc2)C(C2CCCCC2)N1c1ccc(-c2ccon2)cc1 (stereo not drawn) [Compound I-482]	333
Cc1ccc(-c2ccc(N3C(=O)C(O)=C(C(=O)C(C)C)C3c3cccnc3OCCO)cc2)o1 (stereo not drawn) [Compound I-483]	89
COCCCOc1ccccc1C1C(C(=O)C(C)C)=C(O)C(=O)N1c1ccc(SC)cc1 (stereo not drawn) [Compound I-484]	91
COCCOc1ncccc1C1C(C(=O)C(C)C)=C(O)C(=O)N1c1ccc(SC)cc1 (stereo not drawn) [Compound I-485]	218
Cc1ccc(-c2ccc(N3C(=O)C(O)=C(C(=O)C(C)C)C3c3ccccc3N3CCOCC3)cc2)o1 (stereo not drawn) [Compound I-486]	4
Cc1nc(-c2ccc(N3C(=O)C(O)=C(C(=O)C(C)C)C3c3ccccc3N3CCOCC3)cc2)no1 (stereo not drawn) [Compound I-487]	167
Cc1nc(-c2ccc(N3C(=O)C(O)=C(C(=O)CC(C)C)C3c3ccccc3N3CCOCC3)cc2)no1 (stereo not drawn) [Compound I-488]	67
COCCCOc1ccccc1C1C(C(=O)C(C)C)=C(O)C(=O)N1c1ccc(-c2ccsc2)cc1 (stereo not drawn) [Compound I-489]	6
COCCCOc1ccccc1C1C(C(=O)CC(C)C)=C(O)C(=O)N1c1ccc(-c2ccsc2)cc1 (stereo not drawn) [Compound I-490]	17
COCCCOc1ccccc1C1C(C(=O)C(C)C)=C(O)C(=O)N1c1ccc(-c2noc(C)n2)cc1 (stereo not drawn) [Compound I-491]	155
COCCCOc1ccccc1C1C(C(=O)CC(C)C)=C(O)C(=O)N1c1ccc(-c2noc(C)n2)cc1 (stereo not drawn) [Compound I-492]	104
Cc1ccc(-c2ccc(N3C(=O)C(O)=C(C(=O)C(C)C)C3c3ccccc3CC(=O)N(C)C)cc2)o1 (stereo not drawn) [Compound I-493]	105
CCN(C)C(=O)c1ccccc1C1C(C(=O)C(C)C)=C(O)C(=O)N1c1ccc(-c2csc(C)c2)cc1 (stereo not drawn) [Compound I-494]	53
CCN(C)C(=O)c1ccccc1C1C(C(=O)C(C)C)=C(O)C(=O)N1c1ccc(-c2ccc(C)o2)cc1 (stereo not drawn) [Compound I-495]	59
COCCN(C)C(=O)c1ccccc1C1C(C(=O)CC(C)C)=C(O)C(=O)N1c1ccc(-c2ccc(C)o2)cc1 (stereo not drawn) [Compound I-496]	55
COCCN(C)C(=O)c1ccccc1C1C(C(=O)CC(C)C)=C(O)C(=O)N1c1ccc(-c2csc(C)c2)cc1 (stereo not drawn) [Compound I-497]	36
CC(C)CC(=O)C1=C(O)C(=O)N(c2ccc(-c3ccsc3)cc2)C1c1ccccc1OCC(CO)CO (stereo not drawn) [Compound I-498]	8
Cc1nc(-c2ccc(N3C(=O)C(O)=C(S(=O)(=O)c4ccccc4)C3C3CCCCC3)cc2)no1 (stereo not drawn) [Compound I-499]	398
Cc1cc(-c2ccc(N3C(=O)C(O)=C(C(=O)C(C)C)C3c3ccccc3OCC3OCCO3)cc2)cs1 (stereo not drawn) [Compound I-500]	12
Cc1nc(-c2ccc(N3C(=O)C(O)=C(C(=O)C(C)C)C3c3ccccc3OCC3OCCO3)cc2)no1 (stereo not drawn) [Compound I-501]	52
Cc1nc(-c2ccc(N3C(=O)C(O)=C(C(=O)C(C)C)C3c3ccccc3OC3CCOCC3)cc2)no1 (stereo not drawn) [Compound I-502]	67
Cc1nc(-c2ccc(N3C(=O)C(O)=C(C(=O)C(C)C)C3c3ccccc3OC3CCCC3)cc2)no1 (stereo not drawn) [Compound I-503]	17
Cc1ccc(-c2ccc(N3C(=O)C(O)=C(C(=O)CC(C)C)C3c3cccnc3C(=O)OC(C)C)cc2)s1 (stereo not drawn) [Compound I-504]	238
Cc1cc(-c2ccc(N3C(=O)C(O)=C(C(=O)CC(C)C)C3c3ccccc3C(=O)N3CCOCC3)cc2)cs1 (stereo not drawn) [Compound I-505]	168
Cc1ccc(-c2ccc(N3C(=O)C(O)=C(C(=O)CC(C)C)C3c3ccccc3C(=O)N3CCOCC3)cc2)o1 (stereo not drawn) [Compound I-506]	112
Cc1cc(-c2ccc(N3C(=O)C(O)=C(C(=O)C(C)C)C3c3ccccc3S(C)(=O)=O)cc2)cs1 (stereo not drawn) [Compound I-507]	101
Cc1nc(-c2ccc(N3C(=O)C(O)=C(C(=O)C(C)C)C3c3ccccc3OCC#N)cc2)no1 (stereo not drawn) [Compound I-508]	133
CSc1ccc(N2C(=O)C(O)=C(C(=O)C(C)C)C2c2ccccc2OCC#N)cc1 (stereo not drawn) [Compound I-509]	247

The remaining lines, values ahead:

IC50 [nM]	Compound
117	CSc1ccc(N2C(=O)C(O)=C(C(=O)CC(C)C)C2c2ccccc2OCC#N)cc1 (stereo not drawn) [Compound I-511]
62	CC(C)Oc1ccccc1C1C(C(=O)C2CCCC2)=C(O)C(=O)N1c1ccc(-c2ccon2)cc1 (stereo not drawn) [Compound I-512]
65	CC(C)COc1ccccc1C1C(C(=O)C2CCCC2)=C(O)C(=O)N1c1ccc(-c2ccon2)cc1 (stereo not drawn) [Compound I-513]
138	CN(C)C(=O)c1ccccc1C1C(C(=O)C2CCCC2)=C(O)C(=O)N1c1ccc(-c2ccsc2)cc1 (stereo not drawn) [Compound I-514]
37	CCOc1ncccc1C1C(C(=O)C2CCCC2)=C(O)C(=O)N1c1ccc(-c2ccsc2)cc1 (stereo not drawn) [Compound I-515]
33	COCc1ccccc1C1C(C(=O)C2CCCC2)=C(O)C(=O)N1c1ccc(-c2ccsc2)cc1 (stereo not drawn) [Compound I-516]
26	COCCOc1ncccc1C1C(C(=O)C2CCCC2)=C(O)C(=O)N1c1ccc(-c2ccsc2)cc1 (stereo not drawn) [Compound I-517]
87	Cc1nc(-c2ccc(N3C(=O)C(O)=C(C(=O)C4CCCC4)C3c3ccccc3OC(C)C)cc2)no1 (stereo not drawn) [Compound I-518]
33	Cc1nc(-c2ccc(N3C(=O)C(O)=C(C(=O)C4CCCC4)C3c3ccccc3OCC(C)C)cc2)no1 (stereo not drawn) [Compound I-519]
554	COCCOc1ncccc1C1C(C(=O)C2CCCC2)=C(O)C(=O)N1c1ccc(-c2ccon2)cc1 (stereo not drawn) [Compound I-521]
351	COCCOc1ncccc1C1C(C(=O)C2CCCC2)=C(O)C(=O)N1c1ccc(-c2noc(C)n2)cc1 (stereo not drawn) [Compound I-523]
696	Cc1nc(-c2ccc(N3C(=O)C(O)=C(C(=O)C(C)C)C3c3cccnc3N3CCOCC3)cc2)no1 (stereo not drawn) [Compound I-524]
18	CC(C)C(=O)C1=C(O)C(=O)N(c2ccc(-c3ccsc3)cc2)C1c1cccnc1N1CCOCC1 (stereo not drawn) [Compound I-525]
219	Cc1cc(-c2ccc(N3C(=O)C(O)=C(C(=O)C(C)C)C3c3ccccc3CC(=O)N3CCCC3)cc2)cs1 (stereo not drawn) [Compound I-526]
39	COCc1ccccc1C1C(C(=O)C(C)C)=C(O)C(=O)N1c1ccc(C2=CCCC2)cc1 (stereo not drawn) [Compound I-527]
70	COCc1ccccc1C1C(C(=O)C(C)C)=C(O)C(=O)N1c1ccc(C2CCCC2)cc1 (stereo not drawn) [Compound I-528]
237	CCNC(=O)c1ncccc1C1C(C(=O)CC(C)C)=C(O)C(=O)N1c1ccc(-c2ccc(C)s2)cc1 (stereo not drawn) [Compound I-530]
286	COc1ccccc1C1C(C(=O)C(C)C)=C(O)C(=O)N1c1ccc(-c2csnn2)cc1 (stereo not drawn) [Compound I-531]
204	COCCOc1ccccc1C1C(C(=O)C(C)C)=C(O)C(=O)N1c1ccc(-c2csnn2)cc1 (stereo not drawn) [Compound I-532]
33	CC(C)Oc1ccccc1C1C(C(=O)C(C)C)=C(O)C(=O)N1c1ccc(-c2csnn2)cc1 (stereo not drawn) [Compound I-533]
49	CNC(=O)CCc1ccccc1C1C(C(=O)C(C)C)=C(O)C(=O)N1c1ccc(-c2ccc(C)o2)cc1 (stereo not drawn) [Compound I-535]

IC50 [nM]	Compound
32	Cc1ccc(-c2ccc(N3C(=O)C(O)=C(C(=O)C(C)C)C3c3ccccc3CCC(N)=O)cc2)o1 (stereo not drawn) [Compound I-536]
83	Cc1ccc(-c2ccc(N3C(=O)C(O)=C(C(=O)C(C)C)C3c3ccccc3CCC(=O)N(C)C)cc2)o1 (stereo not drawn) [Compound I-537]
119	Cc1ccc(-c2ccc(N3C(=O)C(O)=C(C(=O)C(C)C)C3c3ccccc3CCC(=O)NC(C)C)cc2)o1 (stereo not drawn) [Compound I-538]
62	Cc1nc(-c2ccc(N3C(=O)C(O)=C(C(=O)C(C)C)C3c3ccccc3COC(C)C)cc2)no1 (stereo not drawn) [Compound I-539]
496	CC(C)OCc1ccccc1C1C(C(=O)C(C)C)=C(O)C(=O)N1c1ccc(-c2ccon2)cc1 (stereo not drawn) [Compound I-540]
10	CC(C)OCc1ccccc1C1C(C(=O)C(C)C)=C(O)C(=O)N1c1ccc(-c2ccsc2)cc1 (stereo not drawn) [Compound I-541]
58	CCOCOc1ccccc1C1C(C(=O)C(C)C)=C(O)C(=O)N1c1ccc(-c2noc(C)n2)cc1 (stereo not drawn) [Compound I-542]
240	CCOCOc1ccccc1C1C(C(=O)C(C)C)=C(O)C(=O)N1c1ccc(-c2ccon2)cc1 (stereo not drawn) [Compound I-543]
8	CCOCOc1ccccc1C1C(C(=O)C(C)C)=C(O)C(=O)N1c1ccc(-c2ccsc2)cc1 (stereo not drawn) [Compound I-544]
142	CCOCOc1ccccc1C1C(C(=O)C(C)C)=C(O)C(=O)N1c1ccc(-c2nc(C)no2)cc1 (stereo not drawn) [Compound I-545]
395	Cc1cc(-c2ccc(N3C(=O)C(O)=C(C(=O)C(C)C)C3c3ccccc3C(=O)N3CCOCC3)cc2)cs1 (stereo not drawn) [Compound I-546]
217	COCCN(C)C(=O)c1ccccc1C1C(C(=O)C(C)C)=C(O)C(=O)N1c1ccc(-c2csc(C)c2)cc1 (stereo not drawn) [Compound I-547]
77	Cc1ccc(-c2ccc(N3C(=O)C(O)=C(C(=O)C(C)C)C3c3ccccc3S(C)(=O)=O)cc2)o1 (stereo not drawn) [Compound I-548]
213	Cc1ccc(-c2ccc(N3C(=O)C(O)=C(C(=O)C(C)C)C3c3ccccc3C(=O)N3CCOCC3)cc2)o1 (stereo not drawn) [Compound I-549]
254	COCCOc1ncccc1C1C(C(=O)CC(C)C)=C(O)C(=O)N1c1ccc(SC)cc1 (stereo not drawn) [Compound I-550]
5	CC(C)C(=O)C1=C(O)C(=O)N(c2ccc(-c3ccsc3)cc2)C1c1ccccc1OCC1OCCO1 (stereo not drawn) [Compound I-551]
186	Cc1noc(-c2ccc(N3C(=O)C(O)=C(C(=O)C(C)C)C3c3ccccc3COC(C)C)cc2)n1 (stereo not drawn) [Compound I-552]
337	COc1ccccc1C1C(C(=O)c2cc[nH]c2)=C(O)C(=O)N1c1ccc(-c2csc(C)c2)cc1 (stereo not drawn) [Compound I-553]
579	Cc1nc(-c2ccc(N3C(=O)C(O)=C(C(=O)c4cc[nH]c4)C3C3CCCCC3)cc2)no1 (stereo not drawn) [Compound I-555]
32	COC(=O)C(C)(C)CC(=O)C1=C(O)C(=O)N(c2ccc(-c3ccsc3)cc2)C1c1ccccc1OC (stereo not drawn) [Compound I-556]
